The text below walks through data of patent publication US20160361330A1 (priority 2014, published 2016).

Like-named read-outs stand apart in the source and are kept apart here.

For assay [1], the system named is EBOV-GFP (Ebola virus expressing the GFP reporter gene). Nature of the assay: microbe, parasite or virus in culture. The note with it: Zaire ebolavirus, Huh-7, read-out: EC50 (nM) Reporter Virus EBOV-GFP Huh-7. Format: cell-based.
For assay [2], the system named is Ebola virus (EBOV). Nature of the assay: microbe, parasite or virus in culture. Format: cell-based. The note with it: Zaire ebolavirus, Huh-7, read-out: EC50 (nM) RNA Ebola Huh-7.
Assay [3] relates to Ebola virus (EBOV). Nature of the assay: microbe, parasite or virus in culture. It is filed as cell-based. Conditions: Zaire ebolavirus, Huh-7, read-out: EC50 (nM) Yield Ebola Huh-7.
In assay [4] the test system is ebolavirus (EBOV) strain Zaire. Nature of the assay: organism not typed. It is filed as cell-based, Ebola virus. Conditions: read-out: EC50 (nM) Antigen expression (high content imaging) Ebola Hela.
The subject of assay [5] is ebolavirus (EBOV) strain Zaire. Nature of the assay: organism not typed. Format: cell-based, Ebola virus. The note with it: read-out: EC50 (nM) Antigen expression (high content imaging) Ebola Macrophage.
The subject of assay [6] is NiV GFP (Nipah virus expressing the GFP reporter gene). Nature of the assay: microbe, parasite or virus in culture. Format: cell-based. Conditions: Henipavirus nipahense, read-out: EC50 (nM) Reporter Virus NiV GFP HMVEC-TERT.
The test system of assay [7] is NiV-Luc (Nipah virus expressing the luciferase reporter gene). Nature of the assay: microbe, parasite or virus in culture. Format: cell-based. Conditions: Henipavirus nipahense, read-out: EC50 (nM) Reporter Virus NiV Luc HMVEC-TERT.
Assay [8] concerns EBOV-GFP (Ebola virus expressing the GFP reporter gene). Nature of the assay: microbe, parasite or virus in culture. Format: cell-based. The note with it: Zaire ebolavirus, read-out: EC50 (nM) Reporter Virus EBOV-GFP HMVEC-TERT.
Assay [9] concerns EBOV-Luc (Ebola virus expressing the luciferase reporter gene). Nature of the assay: microbe, parasite or virus in culture. The note with it: Zaire ebolavirus, Huh-7, read-out: EC50 (nM) Reporter Virus EVOV-Luc Huh-7. Format: cell-based.
In assay [10] the test system is MARV-GFP (Marburg virus expressing the GFP reporter gene). Nature of the assay: organism not typed. The note with it: Huh-7, read-out: EC50 (nM) Reporter Virus MARV-GFP Huh-7. Format: cell-based.
Assay [11] concerns NiV (Nipah virus). Nature of the assay: microbe, parasite or virus in culture. It is filed as cell-based. The note with it: Henipavirus nipahense, HeLa, read-out: EC50 (nM) CPE NiV Hela.
The test system of assay [12] is NiV (Nipah virus). Nature of the assay: microbe, parasite or virus in culture. Format: cell-based. The note with it: Henipavirus nipahense, HeLa, read-out: EC50 (nM) Yield NiV Hela.

The term EC50 denotes the concentration giving half of the maximal effect. With `CCC(CC)COC(=O)[C@H](C)NP(=O)(OC[C@H]1O[C@@](C#N)(c2ccc3c(N)ncnn23)[C@H](O)[C@@H]1O)Oc1ccccc1` (stereo partly drawn) [Compound 9, (2S)-2-ethylbutyl 2-(((((2R,3S,4R,5R)-5-(4-aminopyrrolo[2,1-f][1,2,4]triazin-7-yl)-5-cyano-3,4-dihydroxytetrahydrofuran-2-yl)methoxy)(phenoxy)phosphoryl)amino) propanoate], the EC50 in [1] is 90 nM; in the assay on Ebola virus (EBOV) [2], 1 nM; in the assay on Ebola virus (EBOV) [3] it was 1030 nM; in [4] (HeLa), 290 nM; in assay [4], 270 nM; in assay [5], 501 nM. The EC50 came to 60 nM in assay [6] and 30 nM in assay [7].

As for `N#C[C@@]1(c2ccc3c(N)ncnn23)O[C@H](CO)[C@@H](O)[C@H]1O` [Compound 1, (2R, 3R, 4S, 5R)-2-(4-aminopyrrolo[1,2-f][1,2,4]triazin-7-yl)-3,4-dihydroxy-5-(hydroxymethyl)tetrahydrofuran-2-carbonitrile], the half-maximal effective concentration (EC50) in [8] was 771 nM; in [1], 1490 nM; in assay [9], 3130 nM; in [10] it was 1730 nM; in [4] (HeLa) it was above 20000 nM; in assay [5] (Macrophage), above 20000 nM. In addition, the EC50 came to 13400 nM in assay [6], 3500 nM in [7], 1480 nM in the assay with NiV (Nipah virus) [11] and 1000 nM in the assay with NiV (Nipah virus) [12].
